Assay results published in US6893830B1, “Method of screening oxysterol activation of LXRα” (The Board of Regents of the University of Texas System, priority 1996, dated 2005).

Legend:
[1] = tested on: other known nuclear receptors (RXRα, RARα, TRβ, VDR, PPARα, FXR, ER, GR, usp/EcR); assay: Receptor-specific transactivation: cotransfection of other nuclear receptors with their cognate response element reporters in CV-1 cells; format: cell-based, human; conditions: 6 μM 22(R)-hydroxycholesterol
Method: (§1) TK-DR-4-LUC; human vitamin D receptor (VDR)^24, TK-DR^3-LUC; human peroxisome proliferator-activated receptor-α (PPARα)^25, TK-PPREx3-LUC; human farnesol activated receptor (FXR)^11, ΔMTV-EcREx5-LUC; human estrogen receptor (ER)^26, ΔMTV-ERE-LUC; human glucocorticoid receptor (GR)^27, MTV-LUC; Drosophila ecdysone receptor (usp/EcR)^15, ΔMTV-EcREx5-LUC. Cells were treated with ETOH or 6 μM 22(R)-hydroxycholesterol. […] FIG. 3(A)-3(D) Activation of LXRα by 22(R)-hydroxycholesterol in Drosophila (SL-2) cells. […] CV-1 cells were cotransfected with TK-LXREx3-LUC reporter plasmid and expression plasmids containing the indicated receptor combinations, and then treated with the indicated ligands. […] CV-1 cells cotransfected with the LXRα expression plasmid and TK-LXREx3-LUC reporter were treated with 9-cis RA, 22(R)-hydroxycholesterol, or both, at the indicated concentrations.
(§2) In FIG. 3B. Drosophila SL-2 cells were transfected and assayed as previously described^5 in 6-well plates with […] A5C-hLXRα or A5C-hLXRα, 0.5 mg ADH-LXREx2-LUC, 0.2 mg A5C-βGAL and […] PGEM4 carrier DNA per well.

[2] = biological target: T1, TR-LXR chimera (TRβ N-terminus and DNA binding domain fused to ligand binding domain of LXRα) (Homo sapiens, UniProt Q13133); assay: Chimeric receptor transactivation in CV-1 cells, TR-LXR chimera; format: cell-based; conditions: TK-LXREx3-LUC
T1 construct: expressed in transfected cells; host or cells: CV-1 monkey kidney cells
T1 sequence (Q13133 164-447): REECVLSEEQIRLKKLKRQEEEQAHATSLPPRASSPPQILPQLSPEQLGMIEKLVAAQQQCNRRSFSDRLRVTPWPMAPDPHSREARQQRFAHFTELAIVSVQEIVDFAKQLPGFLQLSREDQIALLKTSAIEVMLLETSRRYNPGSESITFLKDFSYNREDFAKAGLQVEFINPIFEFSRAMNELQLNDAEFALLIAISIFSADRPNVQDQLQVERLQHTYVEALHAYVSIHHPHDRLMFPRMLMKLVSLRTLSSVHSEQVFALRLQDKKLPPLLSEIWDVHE
Method: Cells were treated with ETOH or 6 μM 22(R)-hydroxycholesterol. […] CV-1 cells were cotransfected with TK-LXREx3-LUC reporter plasmid and expression plasmids containing the indicated receptor combinations, and then treated with the indicated ligands. […] CV-1 cells cotransfected with the LXRα expression plasmid and TK-LXREx3-LUC reporter were treated with 9-cis RA, 22(R)-hydroxycholesterol, or both, at the indicated concentrations.

RXR/LXR heterodimer = RXR/LXR heterodimer activation, dose response in CV-1 cells with TK-LXREx3-LUC; format: cell-based, human; conditions: LXRα expression plasmid, dose-dependent
Method: as §1, §2
A subset of receptors that function as RXR heterodimers have the unique ability to be activated by their own ligand, the RXR ligand (i.e., 9-cis retinoic acid), or both ligands together^11,17. […]

LXRα = biological target: T2, LXRα (Homo sapiens, UniProt Q13133); assay: Activation of LXRα in Drosophila SL-2 cells (LXR responsive reporter); format: cell-based; design: expressed in transfected cells; host or cells: Drosophila SL-2 cells; conditions: 10 μM
T2 sequence (Q13133 1-447): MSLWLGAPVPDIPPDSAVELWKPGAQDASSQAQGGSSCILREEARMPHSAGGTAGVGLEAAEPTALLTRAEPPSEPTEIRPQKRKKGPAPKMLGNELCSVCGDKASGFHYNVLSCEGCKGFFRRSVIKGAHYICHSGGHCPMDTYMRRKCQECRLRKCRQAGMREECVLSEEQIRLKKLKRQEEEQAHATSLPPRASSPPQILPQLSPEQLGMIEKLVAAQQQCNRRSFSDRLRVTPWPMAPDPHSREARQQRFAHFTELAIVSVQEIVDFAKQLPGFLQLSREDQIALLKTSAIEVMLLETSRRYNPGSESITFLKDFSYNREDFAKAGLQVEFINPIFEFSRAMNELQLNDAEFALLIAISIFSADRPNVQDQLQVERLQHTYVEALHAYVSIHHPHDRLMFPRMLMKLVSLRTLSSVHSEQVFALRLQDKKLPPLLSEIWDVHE
T2 sequence (P19793 1-462 partner): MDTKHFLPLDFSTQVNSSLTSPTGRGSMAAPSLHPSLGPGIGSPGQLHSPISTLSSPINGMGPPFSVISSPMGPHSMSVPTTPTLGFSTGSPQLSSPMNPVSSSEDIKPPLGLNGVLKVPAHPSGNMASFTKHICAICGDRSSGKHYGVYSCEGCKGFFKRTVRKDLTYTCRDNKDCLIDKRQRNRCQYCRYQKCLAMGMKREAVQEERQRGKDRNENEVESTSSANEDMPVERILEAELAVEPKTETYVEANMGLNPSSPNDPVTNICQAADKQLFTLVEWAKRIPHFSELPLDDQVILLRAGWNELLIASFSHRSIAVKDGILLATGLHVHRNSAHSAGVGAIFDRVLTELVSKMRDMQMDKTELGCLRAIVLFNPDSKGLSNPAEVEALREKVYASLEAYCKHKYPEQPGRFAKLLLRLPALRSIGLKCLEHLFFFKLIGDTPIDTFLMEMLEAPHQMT
Method: as §1, §2
The insect cell line, SL-2, which lacks mammalian nuclear receptors and is deficient in the metabolic pathways for cholesterol and bile acid synthesis^14, was used as a transfection host in these experiments. […]

CC(C)CC[C@@H](O)[C@@H](C)[C@H]1CC[C@H]2[C@@H]3CC=C4C[C@@H](O)CC[C@]4(C)[C@H]3CC[C@]12C [22(R)-hydroxycholesterol]
cross-reactivity with other known nuclear receptors (transactivation) [1]: no cross-reactivity
responsiveness of TR-LXR chimera [2]: responded
maximal induction (RXR/LXR heterodimer): 20 fold
induction, LXRα alone transfected (LXRα; LXRα alone): 6 fold
induction, RXRα cotransfected with LXRα (LXRα; RXRα plus LXRα): 26 fold
